Assay: Inhibition of alphaIIb-beta3 integrin mediated platelet aggregation (PLAGGIN15)

| IC50 [µM] | SMILES |
| --- | --- |
| > 10 | COc1ccc([C@@H](CCC[C@@H](O)CCc2ccc3c(n2)NCCC3)CC(=O)O)cn1 [(3S,7R)-7-Hydroxy-3-(6-methoxy-pyridin-3-yl)-9-(5,6,7,8-tetrahydro-[1,8]naphthyridin-2-yl)-nonanoic acid] |
| > 10 | COc1ccc([C@@H](CCC[C@H](O)CCc2ccc3c(n2)NCCC3)CC(=O)O)cn1 [(3S,7S)-7-Hydroxy-3-(6-methoxy-pyridin-3-yl)-9-(5,6,7,8-tetrahydro-[1,8]naphthyridin-2-yl)-nonanoic acid] |
| > 10 | COc1ccc([C@@H](CCCC(=O)CCc2ccc3c(n2)NCCC3)CC(=O)O)cn1 [(S)-3-(6-Methoxy-pyridin-3-yl)-7-oxo-9-(5,6,7,8-tetrahydro-[1,8]naphthyridin-2-yl)-nonanoic acid] |
